The values that follow come from ChEMBL document CHEMBL1123274, “Azasteroids: structure-activity relationships for inhibition of 5 alpha-reductase and of androgen receptor binding” (J Med Chem, 1986).

Experiment [1] has as its target T1, Steroid 5-alpha-reductase (Rattus norvegicus, UniProt P24008+P31214).
T1 sequence (P24008 whole entry): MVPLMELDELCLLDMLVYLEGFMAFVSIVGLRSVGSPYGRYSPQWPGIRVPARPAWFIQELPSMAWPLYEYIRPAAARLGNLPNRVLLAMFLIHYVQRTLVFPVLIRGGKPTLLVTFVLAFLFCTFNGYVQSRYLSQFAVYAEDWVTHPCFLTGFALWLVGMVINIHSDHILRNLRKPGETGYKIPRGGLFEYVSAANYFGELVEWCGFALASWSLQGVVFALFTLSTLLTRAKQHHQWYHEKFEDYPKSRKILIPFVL
T1 sequence (P31214 whole entry): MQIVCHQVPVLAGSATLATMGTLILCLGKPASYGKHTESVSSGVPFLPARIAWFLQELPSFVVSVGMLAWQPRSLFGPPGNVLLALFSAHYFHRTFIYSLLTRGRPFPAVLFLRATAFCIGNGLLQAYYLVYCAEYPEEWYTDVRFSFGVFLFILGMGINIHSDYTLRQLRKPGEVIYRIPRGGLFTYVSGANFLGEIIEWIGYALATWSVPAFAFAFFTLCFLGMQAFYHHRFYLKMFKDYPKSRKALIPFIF
Put plainly: Inhibition of Steroid 5-alpha-reductase from rat prostate. The class given is tissue-based, Prostate gland.

Experiment [2] addresses T2, Androgen receptor (Rattus norvegicus, UniProt P15207).
T2 sequence (P15207 whole entry): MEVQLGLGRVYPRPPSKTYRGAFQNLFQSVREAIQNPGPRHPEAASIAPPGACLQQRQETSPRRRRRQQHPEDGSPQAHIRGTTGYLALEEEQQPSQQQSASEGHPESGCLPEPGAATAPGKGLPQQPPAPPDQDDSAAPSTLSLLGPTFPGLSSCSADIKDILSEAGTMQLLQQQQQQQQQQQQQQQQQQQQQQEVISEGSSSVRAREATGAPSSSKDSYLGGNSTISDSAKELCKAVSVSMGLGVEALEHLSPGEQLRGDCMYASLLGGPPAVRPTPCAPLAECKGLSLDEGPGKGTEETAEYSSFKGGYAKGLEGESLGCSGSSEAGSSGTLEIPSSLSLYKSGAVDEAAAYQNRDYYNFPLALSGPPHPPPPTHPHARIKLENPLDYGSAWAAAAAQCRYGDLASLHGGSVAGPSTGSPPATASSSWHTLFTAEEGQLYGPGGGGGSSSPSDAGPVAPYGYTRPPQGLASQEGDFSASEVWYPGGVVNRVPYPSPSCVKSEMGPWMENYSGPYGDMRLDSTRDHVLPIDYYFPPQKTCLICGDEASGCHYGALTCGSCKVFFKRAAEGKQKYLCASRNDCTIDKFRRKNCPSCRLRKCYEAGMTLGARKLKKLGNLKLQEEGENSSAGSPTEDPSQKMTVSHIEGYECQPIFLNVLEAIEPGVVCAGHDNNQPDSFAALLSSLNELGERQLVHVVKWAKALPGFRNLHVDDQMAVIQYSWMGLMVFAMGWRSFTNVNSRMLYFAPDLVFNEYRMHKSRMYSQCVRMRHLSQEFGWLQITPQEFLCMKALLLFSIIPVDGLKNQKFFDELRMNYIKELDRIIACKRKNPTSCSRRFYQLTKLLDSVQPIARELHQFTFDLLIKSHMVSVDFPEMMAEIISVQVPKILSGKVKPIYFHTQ
Nature of the experiment: In vitro antagonist activity against rat prostatic androgen receptor (AR).

Experiment [3] deals with T1, Steroid 5-alpha-reductase. Put plainly: In vitro inhibitory activity against rat prostatic steroid 5-alpha-reductase. Format: protein assay.
For experiment [4], the target named is T1, Steroid 5-alpha-reductase. Put plainly: Apparent inhibitory constant value for rat prostatic steroid 5-alpha reductase was determined. Format: protein assay.
The target in experiment [5] is T1, Steroid 5-alpha-reductase. Nature of the experiment: Apparent inhibitory constant value for rat prostatic steroid 5alpha reductase was determined. Format: protein assay.
The target in experiment [6] is T1, Steroid 5-alpha-reductase. Put plainly: Apparent inhibitory constant value for rat prostatic 5-alpha reductase was determined. Format: protein assay.

Molecules are shown by their SMILES. pIC50: −log10 of the molar value.

What is called IC50 is the concentration at which inhibition is half-maximal. A high value points to weaker potency in that assay. The pIC50 is the IC50 on a negative log10 scale, so that one unit is a factor of ten. A low value points to a high IC50. As for `CC(O)[C@H]1CC[C@H]2[C@@H]3CCC4N(C)C(=O)CC[C@]4(C)[C@H]3CC[C@]12C` (stereo partly drawn), in experiment [1], the IC50 turned out to be 1.9e-08 M. For the same compound, the pIC50 in experiment [2] was 7.13.

Regarding `CC(O)[C@@]1(O)CC[C@H]2[C@@H]3CCC4N(C)C(=O)CC[C@]4(C)[C@H]3CC[C@@]21C` (stereo partly drawn), the pIC50 in experiment [2] was 5.72. For the same compound, in experiment [3], the IC50 came out at 7.6 nM. Moreover, in experiment [4], the Ki app was 6 nM.

`CC(C(=O)[O-])[C@H]1CC[C@H]2[C@@H]3CCC4N(C)C(=O)CC[C@]4(C)[C@H]3CC[C@]12C.[Na+]` (stereo partly drawn) had a pIC50 in experiment [2] of 4.34. This compound had an IC50 in experiment [3] of 1.7 nM. For the same compound, the Ki app in experiment [4] is given as 1.7 nM.

In the case of `CCN(CC)C(=O)[C@H]1CC[C@H]2[C@@H]3CC[C@H]4N(C)C(=O)CC[C@]4(C)[C@H]3CC[C@]12C`, the Ki app in experiment [5] turned out to be 5 nM. This compound also gave a pIC50 in experiment [2] of 5.55. In addition, the IC50 in experiment [3] was 11 nM.

`CN1C(=O)CC[C@@]2(C)C1CC[C@H]1[C@@H]3CC[C@H](O)[C@@]3(C)CC[C@@H]12` (stereo partly drawn) displayed an IC50 in experiment [1] of 1.5e-07 M. For the same compound, in experiment [2], the pIC50 was 7.72.

Compound `C[C@]12CC[C@H]3[C@@H](CCC4=CC(=O)CC[C@@]43C)[C@@H]1CC[C@@H]2C(=O)O` displayed an IC50 in experiment [1] of 6.6e-07 M. The compound also had a pIC50 in experiment [2] of 5.05.

Compound `CC(=O)[C@H]1CC[C@H]2[C@@H]3CCC4NC(=O)CC[C@]4(C)[C@H]3CC[C@]12C` (stereo partly drawn) came in with an IC50 in experiment [1] of 5e-08 M. Besides, the pIC50 in experiment [2] is 4.17.

In experiment [1], `C[C@]12CC[C@H]3[C@@H](CCC4NC(=O)CC[C@@]43C)[C@@H]1CC[C@@H]2O` (stereo partly drawn) yielded an IC50 of 2.5e-07 M. In experiment [2], this compound had a pIC50 of 6.03.

In experiment [1], `COC(=O)[C@H]1CC[C@H]2[C@@H]3CCC4=CC(=O)CC[C@]4(C)[C@H]3CC[C@]12C` registered an IC50 of 4.8e-07 M. In addition, the pIC50 in experiment [2] was 6.85.

As to `C[C@]12CCC(=O)C=C1CC[C@@H]1[C@@H]2CC[C@@]2(C)[C@H]1CC[C@@]21CCCO1`, in experiment [1], the IC50 was 1.1e-06 M. In addition, the pIC50 in experiment [2] is 7.05.

For the compound `CCN(CC)C(=O)[C@H]1CC[C@H]2[C@@H]3CCC4=C(C#N)C(=O)CC[C@]4(C)[C@H]3CC[C@]12C`, the IC50 in experiment [1] turned out to be 2.9e-08 M. In experiment [2], the pIC50 is 5.89.

For the compound `COC(=O)[C@H]1CC[C@H]2[C@@H]3CCC4N(C)C(=O)CC[C@]4(C)[C@H]3CC[C@]12C` (stereo partly drawn), the Ki app in experiment [6] is given as 165 nM. Also, the pIC50 in experiment [2] is 6.92. Moreover, in experiment [3], the IC50 is 7.6 nM.

Compound `C[C@]12CC[C@H]3[C@@H](CCC4=CC(=O)CC[C@@H]43)[C@@H]1CC[C@@]21CCCO1` gave an IC50 in experiment [1] of 1.5e-06 M. Further, the pIC50 in experiment [2] is 7.52.

`C=C1C[C@@H]2[C@H](CC[C@@]3(C)[C@H]2CC[C@]3(OC(C)=O)C(C)=O)[C@@]2(C)CCC(=O)C=C12` yielded an IC50 in experiment [1] of 1.6e-07 M.

`CC(O)[C@H]1CC[C@H]2[C@@H]3CCC4NC(=O)CC[C@]4(C)[C@H]3CC[C@]12C` (stereo partly drawn) displayed an IC50 in experiment [1] of 4.5e-08 M. The compound also had a pIC50 in experiment [2] of 5.03.

In experiment [1], `CCN(CC)C(=O)[C@H]1CC[C@H]2[C@@H]3CCC4=CC(=O)CC[C@]4(C)[C@H]3CC[C@]12C` showed an IC50 of 7.6e-07 M. Moreover, the pIC50 in experiment [2] is 6.47.

In turn, `CC(=O)[C@H]1CC[C@H]2[C@@H]3CCC4N(C)C(=O)CC[C@]4(C)[C@H]3CC[C@]12C` (stereo partly drawn) returned an IC50 in experiment [1] of 2.3e-08 M. Besides, in experiment [2], the pIC50 is 6.68.

The compound `CC(C)N(C(=O)[C@H]1CC[C@H]2[C@@H]3CCC4NC(=O)CC[C@]4(C)[C@H]3CC[C@]12C)C(C)C` (stereo partly drawn) gave a pIC50 in experiment [2] of under 4.00. Also, in experiment [3], the IC50 stood at 11 nM. The Ki app in experiment [4] stood at 13 nM.

Compound `CN1C(=O)C=C[C@@]2(C)C1CC[C@H]1[C@@H]3CC[C@H](C(=O)NC(C)(C)C)[C@@]3(C)CC[C@@H]12` (stereo partly drawn) had a pIC50 in experiment [2] of 6.82. Also, in experiment [3], the 50% inhibitory concentration (IC50) stood at 13 nM.

For `C[C@]12CCC(=O)CC1CC[C@@H]1[C@@H]2CC[C@@]2(C)[C@H]1CC[C@@]21CCCO1` (stereo partly drawn), the IC50 in experiment [1] was over 1e-06 M. The same compound had a pIC50 in experiment [2] of 7.64.

As to `CN1C(=O)CC[C@@]2(C)C1CC[C@@H]1[C@@H]2CC[C@@]2(C)[C@H]1CC[C@@]21CCCO1` (stereo partly drawn), the pIC50 in experiment [2] is 6.85. In experiment [3], this compound returned an IC50 of 37 nM. In addition, the Ki app in experiment [4] was found to be 24 nM.

Regarding `CCN(CC)C(=O)[C@H]1CC[C@H]2[C@@H]3CC[C@@H]4NC(=O)CC[C@]4(C)[C@H]3CC[C@]12C` (stereo in doubt; 9x), the pIC50 in experiment [2] was under 4.00. The compound further yielded an IC50 in experiment [3] of 41 nM. Besides, in experiment [4], the Ki app was 29 nM.

`CCN(CC)C(=O)[C@H]1CC[C@H]2[C@@H]3CC[C@@H]4NC(=O)CC[C@]4(C)[C@H]3CC[C@]12C` (stereo in doubt; 79): the pIC50 in experiment [2] was under 5.00. The IC50 in experiment [3] was over 1000 nM.

`C[C@]12CCC(=O)C[C@@H]1CC[C@@H]1[C@@H]2CC[C@]2(C)[C@@H](O)CC[C@@H]12` [STANOLONE]: the IC50 in experiment [1] was >> 1e-6 M.
